28 molecules from patent US9156829B2, “Cycloalkyl and heterocycloalkyl compounds as orexin receptor antagonists” (Takeda Pharmaceutical Company Limited, priority 2014, dated 2015) can be followed below.

SMILES strings stand for the structures. Bounds are passed on as bounds.

The target of experiment [1] is human orexin receptor 2 (Homo sapiens (Human), UniProt O43614). As to the kind of experiment: Orexin antagonist activity, intracellular calcium FLIPR assay, RBL-2H3 cells expressing human orexin receptor 2. The settings on record: RBL-2H3 cells stably expressing human orexin receptor 2; orexin-A at approx. 80% maximal response; compound added 15 minutes before; read-out: Human Orexin2R IC50. In kind it is cell-based.
Chain of human orexin receptor 2 (O43614 whole entry): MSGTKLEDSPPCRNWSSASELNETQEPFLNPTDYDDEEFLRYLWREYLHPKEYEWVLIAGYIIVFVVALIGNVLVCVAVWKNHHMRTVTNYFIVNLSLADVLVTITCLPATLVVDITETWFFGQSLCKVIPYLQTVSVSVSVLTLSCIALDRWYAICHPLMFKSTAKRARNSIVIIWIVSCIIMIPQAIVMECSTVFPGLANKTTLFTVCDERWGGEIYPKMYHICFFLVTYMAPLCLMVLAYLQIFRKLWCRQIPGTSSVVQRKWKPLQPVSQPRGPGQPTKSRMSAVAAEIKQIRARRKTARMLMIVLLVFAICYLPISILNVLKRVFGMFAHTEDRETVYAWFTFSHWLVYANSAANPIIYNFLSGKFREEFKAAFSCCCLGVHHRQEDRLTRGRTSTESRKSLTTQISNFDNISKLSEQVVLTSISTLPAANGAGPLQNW

In experiment [2] the target is human orexin receptor 1 (Homo sapiens (Human), UniProt O43613). Put plainly: Orexin antagonist activity, intracellular calcium FLIPR assay, RBL-2H3 cells expressing human orexin receptor 1. It counts as cell-based. The settings on record: RBL-2H3 cells stably expressing human orexin receptor 1; orexin-A at approx. 80% maximal response; compound added 15 minutes before; read-out: Human Orexin1R IC50.
Chain of human orexin receptor 1 (O43613 whole entry): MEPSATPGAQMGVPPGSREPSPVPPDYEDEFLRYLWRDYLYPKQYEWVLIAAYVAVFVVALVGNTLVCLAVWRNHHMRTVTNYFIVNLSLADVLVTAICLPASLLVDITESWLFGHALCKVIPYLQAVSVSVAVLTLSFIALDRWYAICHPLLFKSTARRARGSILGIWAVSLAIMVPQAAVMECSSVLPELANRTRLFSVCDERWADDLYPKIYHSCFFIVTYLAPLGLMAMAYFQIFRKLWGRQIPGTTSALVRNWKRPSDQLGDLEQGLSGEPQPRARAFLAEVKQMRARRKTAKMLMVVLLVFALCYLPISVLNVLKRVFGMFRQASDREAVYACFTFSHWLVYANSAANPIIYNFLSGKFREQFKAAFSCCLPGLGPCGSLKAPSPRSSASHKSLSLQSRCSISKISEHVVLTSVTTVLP

What is called IC50 is the point on the concentration scale where inhibition reaches its midpoint. Consider `O=C(N[C@H]1CCC[C@@H]1Nc1ccc(OC(F)(F)F)cn1)c1ccccc1-n1nccn1` [Example 115, 2-(2H-1,2,3-Triazol-2-yl)-N-[(1S,2S)-2-{[5-(trifluoromethoxy)pyridin-2-yl]amino}cyclopentyl]benzamide], for which the concentration for half-maximal inhibition (IC50) was more than 10000 nM in experiment [1] and 175 nM in experiment [2].

In the case of `O=C(N[C@H]1CCC[C@@H]1Nc1ccc(Br)cn1)c1ccccc1-n1nccn1` [Example 118, N-[(1S,2S)-2-[(5-Bromopyridin-2-yl)amino]cyclopentyl]-2-(2H-1,2,3-triazol-2-yl)benzamide], the IC50 in experiment [1] is more than 10000 nM; in experiment [2], 368 nM.

`COc1cc(Br)cnc1N[C@H]1CCC[C@@H]1NC(=O)c1ccccc1-n1nccn1` [Example 119, N-[(1S,2S)-2-[(5-Bromo-3-methoxypyridin-2-yl)amino]cyclopentyl]-2-(2H-1,2,3-triazol-2-yl)benzamide]: the results for the IC50 in experiment [1] and in experiment [2] were 7800 nM and 22 nM, respectively.

Consider `O=C(N[C@H]1CCC[C@@H]1Nc1cc(C(F)(F)F)ccn1)c1ccccc1-n1nccn1` [Example 121, 2-(2H-1,2,3-Triazol-2-yl)-N-[(1S,2S)-2-{[4-(trifluoromethyl)pyridin-2-yl]amino}cyclopentyl]benzamide], for which the IC50 in experiment [1] was more than 10000 nM; in experiment [2], 822 nM.

With `O=C(N[C@H]1CCC[C@@H]1Nc1ncc(C(F)(F)F)cc1Cl)c1ncccc1-n1nccn1` [Example 122, N-[(1S,2S)-2-{[3-Chloro-5-(trifluoromethyl)pyridin-2-yl]amino}cyclopentyl]-3-(2H-1,2,3-triazol-2-yl)pyridine-2-carboxamide], the figures for the IC50 in experiment [1] and in experiment [2] were more than 10000 nM and 32 nM, respectively.

`O=C(N[C@H]1CCC[C@@H]1Nc1ncc(C(F)(F)F)cc1F)c1ncccc1-n1nccn1` [Example 123, N-[(1S,2S)-2-{[3-Fluoro-5-(trifluoromethyl)pyridin-2-yl]amino}cyclopentyl]-3-(2H-1,2,3-triazol-2-yl)pyridine-2-carboxamide]: the concentration for half-maximal inhibition (IC50) was more than 10000 nM in experiment [1] and 18 nM in experiment [2].

`Cc1cc(C(F)(F)F)cnc1N[C@H]1CCC[C@@H]1NC(=O)c1ncccc1-n1nccn1` [Example 124, N-[(1S,2S)-2-{[3-Methyl-5-(trifluoromethyl)pyridin-2-yl]amino}cyclopentyl]-3-(2H-1,2,3-triazol-2-yl)pyridine-2-carboxamide]: the IC50 in experiment [1] was more than 10000 nM; in experiment [2], 21 nM.

With `CCc1nc(C(F)(F)F)cnc1N[C@H]1CCC[C@@H]1NC(=O)c1ncccc1-n1nccn1` [Example 125, N-[(1S,2S)-2-{[3-Ethyl-5-(trifluoromethyl)pyrazin-2-yl]amino}cyclopentyl]-3-(2H-1,2,3-triazol-2-yl)pyridine-2-carboxamide], the concentration for half-maximal inhibition (IC50) in experiment [1] is more than 10000 nM; in experiment [2], 14 nM.

For `O=C(NC1CC(F)(F)CC1Nc1cnc(C(F)(F)F)cn1)c1ccccc1-n1nccn1` (centres unmarked) [Example 126, N-(4,4-Difluoro-2-{[5-(trifluoromethyl)pyrazin-2-yl]amino}cyclopentyl)-2-(2H-1,2,3-triazol-2-yl)benzamide], the IC50 is more than 10000 nM in experiment [1] and 119 nM in experiment [2].

As for `O=C(N[C@H]1CC(F)(F)C[C@@H]1Nc1ccc(OC(F)(F)F)cn1)c1ccccc1-n1nccn1` [Example 131, N-[(1S,2S)-4,4-Difluoro-2-{[5-(trifluoromethoxy)pyridin-2-yl]amino}cyclopentyl]-2-(2H-1,2,3-triazol-2-yl)benzamide], the IC50 is more than 10000 nM in experiment [1] and 39 nM in experiment [2].

Take `O=C(N[C@H]1CC(F)(F)C[C@@H]1Nc1ncc(C(F)(F)F)cc1F)c1ccccc1-n1nccn1` [Example 132, N-[(1S,2S)-4,4-Difluoro-2-{[3-fluoro-5-(trifluoromethyl)pyridin-2-yl]amino}cyclopentyl]-2-(2H-1,2,3-triazol-2-yl)benzamide]: the IC50 in experiment [1] was more than 10000 nM; in experiment [2] it was 12 nM.

Consider `CCOc1cnc(-c2ccccc2C(=O)N[C@H]2CCC[C@@H]2Nc2cnc(C(F)(F)F)cn2)nc1` [Example 135, 2-(5-Ethoxypyrimidin-2-yl)-N-[(1S,2S)-2-{[5-(trifluoromethyl)pyrazin-2-yl]amino}cyclopentyl]benzamide], for which the IC50 was more than 10000 nM in experiment [1] and 94 nM in experiment [2].

On to `COc1cccc(F)c1C(=O)N[C@H]1CCC[C@@H]1Nc1cnc(C(F)(F)F)cn1` [Example 136, 2-Fluoro-6-methoxy-N-[(1S,2S)-2-{[5-(trifluoromethyl)pyrazin-2-yl]amino}cyclopentyl]benzamide], for which the concentration for half-maximal inhibition (IC50) is more than 10000 nM in experiment [1] and 830 nM in experiment [2].

In the case of `Cc1cc(C(F)(F)F)cnc1N[C@H]1CCC[C@@H]1NC(=O)c1ncccc1-c1ncccn1` [Example 137, N-[(1S,2S)-2-{[3-Methyl-5-(trifluoromethyl)pyridin-2-yl]amino}cyclopentyl]-3-(pyrimidin-2-yl)pyridine-2-carboxamide], the figures for the IC50 in experiment [1] and in experiment [2] were more than 10000 nM and 34 nM, respectively.

In the case of `O=C(N[C@H]1CCC[C@@H]1Nc1ncc(C(F)(F)F)cc1F)c1ccccc1-c1ncccn1` [Example 138, N-[(1S,2S)-2-{[3-Fluoro-5-(trifluoromethyl)pyridin-2-yl]amino}cyclopentyl]-2-(pyrimidin-2-yl)benzamide], the IC50 is more than 10000 nM in experiment [1] and 30 nM in experiment [2].

Take `O=C(N[C@H]1CCC[C@@H]1Nc1ncc(C(F)(F)F)cc1F)c1cc(F)ccc1-c1ncccn1` [Example 139, 5-Fluoro-N-[(1S,2S)-2-{[3-fluoro-5-(trifluoromethyl)pyridin-2-yl]amino}cyclopentyl]-2-(pyrimidin-2-yl)benzamide]: the figures for the half-maximal inhibitory concentration (IC50) in experiment [1] and in experiment [2] were more than 10000 nM and 32 nM, respectively.

For `Cc1noc(-c2ccccc2C(=O)N[C@H]2CCC[C@@H]2Nc2ncc(C(F)(F)F)cc2F)n1` [Example 140, N-[(1S,2S)-2-{[3-Fluoro-5-(trifluoromethyl)pyridin-2-yl]amino}cyclopentyl]-2-(3-methyl-1,2,4-oxadiazol-5-yl)benzamide], the concentration for half-maximal inhibition (IC50) in experiment [1] is more than 10000 nM; in experiment [2] it was 35 nM.

With `Cc1noc(-c2ccccc2C(=O)N[C@H]2CCC[C@@H]2Nc2ncc(C(F)(F)F)nc2C)n1` [Example 141, 2-(3-Methyl-1,2,4-oxadiazol-5-yl)-N-[(1S,2S)-2-{[3-methyl-5-(trifluoromethyl)pyrazin-2-yl]amino}cyclopentyl]benzamide], the half-inhibitory concentration (IC50) in experiment [1] was more than 10000 nM; in experiment [2], 62 nM.

Consider `O=C(N[C@H]1CCC[C@@H]1Nc1ncc(C(F)(F)F)nc1C1CC1)c1ncccc1-n1nccn1` [Example 142, N-[(1S,2S)-2-{[3-Cyclopropyl-5-(trifluoromethyl)pyrazin-2-yl]amino}cyclopentyl]-3-(2H-1,2,3-triazol-2-yl)pyridine-2-carboxamide], for which the IC50 is 8830 nM in experiment [1] and 12 nM in experiment [2].

As to `O=C(N[C@H]1CCC[C@@H]1Nc1ncc(C(F)(F)F)nc1C1CC1)c1ncccc1-c1ncccn1` [Example 143, N-[(1S,2S)-2-{[3-Cyclopropyl-5-(trifluoromethyl)pyrazin-2-yl]amino}cyclopentyl]-3-(pyrimidin-2-yl)pyridine-2-carboxamide], the IC50 was more than 10000 nM in experiment [1] and 49 nM in experiment [2].

Turning to `C[C@]1(Nc2cnc(C(F)(F)F)cn2)CCC[C@@H]1NC(=O)c1ncccc1-c1ncccn1` [Example 144, N-[(1S,2S)-2-Methyl-2-{[5-(trifluoromethyl)pyrazin-2-yl]amino}cyclopentyl]-3-(pyrimidin-2-yl)pyridine-2-carboxamide], the half-inhibitory concentration (IC50) is more than 10000 nM in experiment [1] and 13 nM in experiment [2].

Consider `Cc1noc(-c2ccccc2C(=O)N[C@H]2CCC[C@]2(C)Nc2cnc(C(F)(F)F)cn2)n1` [Example 145, 2-(3-Methyl-1,2,4-oxadiazol-5-yl)-N-[(1S,2S)-2-methyl-2-{[5-(trifluoromethyl)pyrazin-2-yl]amino}cyclopentyl]benzamide], for which the half-inhibitory concentration (IC50) in experiment [1] is more than 10000 nM; in experiment [2] it was 11 nM.

In the case of `CC1(Nc2ncc(C(F)(F)F)cc2F)CCCC1NC(=O)c1ncccc1-c1ncccn1` (centres unmarked) [Example 146, N-(2-{[3-Fluoro-5-(trifluoromethyl)pyridin-2-yl]amino}-2-methylcyclopentyl)-3-(pyrimidin-2-yl)pyridine-2-carboxamide], the figures for the 50% inhibitory concentration (IC50) in experiment [1] and in experiment [2] were more than 10000 nM and 7 nM, respectively.

As for `O=C(N[C@H]1CCC[C@@H]1Nc1ncc(C(F)(F)F)cc1F)c1ncccc1-c1ncccn1` [Example 147, N-[(1S,2S)-2-{[3-Fluoro-5-(trifluoromethyl)pyridin-2-yl]amino}cyclopentyl]-3-(pyrimidin-2-yl)pyridine-2-carboxamide], the figures for the IC50 in experiment [1] and in experiment [2] were more than 10000 nM and 24 nM, respectively.

As to `O=C(N[C@H]1CCC[C@@H]1Nc1ncc(C(F)(F)F)cc1Cl)c1ncccc1-c1ncccn1` [Example 148, N-[(1S,2S)-2-{[3-Chloro-5-(trifluoromethyl)pyridin-2-yl]amino}cyclopentyl]-3-(pyrimidin-2-yl)pyridine-2-carboxamide], the 50% inhibitory concentration (IC50) in experiment [1] was more than 10000 nM; in experiment [2], 19 nM.

For `CCc1nc(C(F)(F)F)cnc1N[C@H]1CCC[C@@H]1NC(=O)c1ccccc1-c1nc(C)no1` [Example 149, N-[(1S,2S)-2-{[3-Ethyl-5-(trifluoromethyl)pyrazin-2-yl]amino}cyclopentyl]-2-(3-methyl-1,2,4-oxadiazol-5-yl)benzamide], the IC50 in experiment [1] was more than 10000 nM; in experiment [2], 25 nM.

As to `CCc1nc(C(F)(F)F)cnc1N[C@H]1CCC[C@@H]1NC(=O)c1ncccc1-c1ncccn1` [Example 150, N-[(1S,2S)-2-{[3-Ethyl-5-(trifluoromethyl)pyrazin-2-yl]amino}cyclopentyl]-3-(pyrimidin-2-yl)pyridine-2-carboxamide], the figures for the IC50 in experiment [1] and in experiment [2] were more than 10000 nM and 43 nM, respectively.

Turning to `CCc1nc(C(F)(F)F)cnc1N[C@H]1CCC[C@@H]1NC(=O)c1ccccc1-c1ncccn1` [Example 151, N-[(1S,2S)-2-{[3-Ethyl-5-(trifluoromethyl)pyrazin-2-yl]amino}cyclopentyl]-2-(pyrimidin-2-yl)benzamide], the IC50 was more than 10000 nM in experiment [1] and 29 nM in experiment [2].
